# Source: US10259807B2, “1-(piperazin-1-yl)-2-([1,2,4]triazol-1-yl)-ethanone derivatives” (Idorsia Pharmaceuticals Ltd., priority 2013, dated 2019)
# Legend:
# hERG K channel = target: T1, hERG K channel (Homo sapiens, UniProt Q12809); test: hERG Q-Patch assay; format: cell-based; details: CHO cells expressing hERG, K+ tail current 3 min after application, mean of two or three experiments
# T1 construct: host or cells: CHO
# Method: B) hERG Q-Patch assay: Compounds are evaluated for block of the hERG K channel using CHO cells stably expressing the hERG gene (accession number U04270, bSys, Witterswil. Switzerland) and the Patch robotic platform (Sophion, Ballerup, Denmark) in single-cell mode at room temperature. […] When the cells are ˜80% confluent (every 2-3 days), they are either split for further culture or used for electrophysiology. […] Cells are kept in suspension medium at 32-35° C. in the QPatch robot until use, at which time aliquots are transferred to the extracellular solution (in mM: NaCl 150; KCl 4; CaCl2 1.2; MgCl2 1; HEPES 10; pH 7.4 with NaOH) containing 0.3% v/v DMSO and applied to the test plates. K^+ currents are measured with the patch-voltage-clamp technique in the whole-cell configuration with the internal solution (in […]: KCl, 140; NaCl, 10; MgCl2, 1; HEPES, 10; EGTA, 5; pH=7.2 with KOH). […] K^+tail currents are produced from a holding voltage of −80 mV by a 500-ms depolarization to +20 mV followed by a 500-ms repolarization to −40 mV; tail current amplitudes are measured at the end of the repolarization to −40 mV. The pulse pattern is repeated every 10 sec during the experiment, baseline K^+ current is measured after 3 min in extracellular solution, test-solution containing compound is then applied, and K^+ current in presence of compound is measured 3 minutes after application to the cells.
# human CXCR3A = target: T2, human CXCR3A (Homo sapiens, UniProt P49682); test: FLIPR assay (CXCL10-induced calcium signal in CHO-K1 cells); format: cell-based; details: CHO-K1 cells expressing human CXCR3A coupled to Galpha(16); CXCL10 agonist 20 nM; mean values
# T2 construct: expressed in transfected cells; host or cells: CHO-K1
# T2 sequence (P49682 1-368): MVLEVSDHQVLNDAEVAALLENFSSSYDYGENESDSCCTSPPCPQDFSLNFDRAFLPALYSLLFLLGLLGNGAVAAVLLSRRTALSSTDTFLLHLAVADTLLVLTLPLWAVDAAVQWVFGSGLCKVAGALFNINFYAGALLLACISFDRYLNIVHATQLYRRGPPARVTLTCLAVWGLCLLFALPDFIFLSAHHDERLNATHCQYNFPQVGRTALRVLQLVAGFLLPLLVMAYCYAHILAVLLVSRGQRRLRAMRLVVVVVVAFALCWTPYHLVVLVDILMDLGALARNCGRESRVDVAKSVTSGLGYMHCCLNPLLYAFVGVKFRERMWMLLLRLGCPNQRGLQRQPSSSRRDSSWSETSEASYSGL
# Method: A) FLIPR assay: The bioactivity of compounds is tested in a fluorometric imaging plate reader (FLIPR: Molecular Devices) using engineered CHO-K1 cells expressing the human CXCR3A (GenBank: AY242128) coupled to a G protein (Galpha(16)). Cells are plated the day prior to bioassay in F12 medium supplemented with 10% FBS and G418 and hygromycin antibiotics to maintain recombinant selection. […] Cells are washed free of excess dye and 60 microliter of wash buffer is added. Stock solutions of test compounds are made up at a concentration of 10 mM in DMSO, and serially diluted in dilution buffer to concentrations required for inhibition dose response curves. After a 10 minute incubation period at 37° C., 10 microliters of each compound dilution are transferred from a compound plate to the plate containing the recombinant cells in the FLIPR instrument according to the manufacturer's instructions. Following basal readings, 10 microliter CXCL10 agonist at a concentration of 20 nM (from Peprotech) is added, again using the FLIPR instrument. Changes in fluorescence are monitored before and after addition of the test compounds. Emission peak values above base level after CXCL10 addition are exported after base line subtraction. The program XLfit is used to fit the data to a single site dose response curve and to calculate IC50 values. The calculated IC50 values may fluctuate depending on the daily assay performance. Fluctuations of this kind are known to those skilled in the art.
# T1 sequence (Q12809 whole entry): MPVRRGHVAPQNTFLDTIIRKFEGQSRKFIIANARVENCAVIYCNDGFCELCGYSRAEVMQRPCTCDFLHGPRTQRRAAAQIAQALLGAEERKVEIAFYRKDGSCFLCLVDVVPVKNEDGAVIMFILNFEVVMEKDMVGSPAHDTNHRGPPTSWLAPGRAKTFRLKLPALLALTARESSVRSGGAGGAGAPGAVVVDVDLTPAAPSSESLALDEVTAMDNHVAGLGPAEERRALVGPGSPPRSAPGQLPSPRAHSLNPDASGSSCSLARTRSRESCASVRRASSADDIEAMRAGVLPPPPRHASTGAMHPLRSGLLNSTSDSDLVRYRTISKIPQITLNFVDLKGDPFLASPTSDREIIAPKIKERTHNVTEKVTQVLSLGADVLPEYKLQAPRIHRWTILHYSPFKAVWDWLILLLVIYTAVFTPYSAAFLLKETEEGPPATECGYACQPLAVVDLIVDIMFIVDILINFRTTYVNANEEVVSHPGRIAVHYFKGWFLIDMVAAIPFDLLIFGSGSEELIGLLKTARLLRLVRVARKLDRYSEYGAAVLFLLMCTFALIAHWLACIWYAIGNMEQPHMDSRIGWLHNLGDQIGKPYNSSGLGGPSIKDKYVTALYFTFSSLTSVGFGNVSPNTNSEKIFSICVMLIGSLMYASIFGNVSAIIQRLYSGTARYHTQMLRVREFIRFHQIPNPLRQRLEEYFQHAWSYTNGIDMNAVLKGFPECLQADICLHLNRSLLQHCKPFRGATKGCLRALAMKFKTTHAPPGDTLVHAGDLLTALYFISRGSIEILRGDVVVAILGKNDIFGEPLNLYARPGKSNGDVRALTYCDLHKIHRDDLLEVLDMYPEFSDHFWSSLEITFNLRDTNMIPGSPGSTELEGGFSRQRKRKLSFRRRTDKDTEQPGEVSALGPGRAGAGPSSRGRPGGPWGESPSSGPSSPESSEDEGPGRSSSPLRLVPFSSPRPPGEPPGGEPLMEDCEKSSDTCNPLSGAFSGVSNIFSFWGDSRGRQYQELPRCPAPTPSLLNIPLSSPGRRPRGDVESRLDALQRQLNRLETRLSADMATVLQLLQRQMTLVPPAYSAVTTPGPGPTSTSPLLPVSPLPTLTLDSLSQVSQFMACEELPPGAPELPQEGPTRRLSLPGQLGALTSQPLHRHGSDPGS
SMILES,% block (hERG K channel; concentration 300 nM) [%],% block (hERG K channel; concentration 3000 nM) [%],IC50 (human CXCR3A) [nM]
"Cc1nc(C)n(CC(=O)N2CCN(c3sc(C(F)(F)F)nc3-c3cnc(OC4COC4)nc3)C[C@H]2C)n1 [Example 30, 2-(3,5-Dimethyl-[1,2,4]triazol-1-yl)-1-((R)-2-methyl-4-{4-[2-(oxetan-3-yloxy)-pyrimidin-5-yl]-2-trifluoromethyl-thiazol-5-yl}-piperazin-1-yl)-ethanone]",1,6,22
"CCc1ncc(-c2nc(C(F)(F)F)sc2N2CCN(C(=O)Cn3nc(C)nc3C)[C@H](C)C2)cn1 [Example 43, 2-(3,5-Dimethyl-[1,2,4]triazol-1-yl)-1-{(R)-4-[4-(2-ethyl-pyrimidin-5-yl)-2-trifluoromethyl-thiazol-5-yl]-2-methyl-piperazin-1-yl}-ethanone]",4,8,–
"CCc1nc(C)nn1CC(=O)N1CCN(c2sc(C(F)(F)F)nc2-c2cnc(C(F)(F)F)nc2)C[C@H]1C (single isomer, unassigned) [Example 47]",5,18,3.5
"CCOc1ncc(-c2nc(C(F)(F)F)sc2N2CCN(C(=O)Cn3nc(CN(C)C)nc3C)[C@H](C)C2)cn1 [Example 17, 2-(3-Dimethylaminomethyl-5-methyl-[1,2,4]triazol-1-yl)-1-{(R)-4-[4-(2-ethoxy-pyrimidin-5-yl)-2-trifluoromethyl-thiazol-5-yl]-2-methyl-piperazin-1-yl}-ethanone]",13,26,20
"COc1ccc(-c2nc(C(F)(F)F)sc2N2CCN(C(=O)Cn3nc(C)nc3C)[C@H](C)C2)c(F)c1 [Example 11, 2-(3,5-Dimethyl-[1,2,4]triazol-1-yl)-1-{(R)-4-[4-(2-fluoro-4-methoxy-phenyl)-2-trifluoromethyl-thiazol-5-yl]-2-methyl-piperazin-1-yl}-ethanone]",10,19,45
"COCCOc1ncc(-c2nc(C(F)(F)F)sc2N2CCN(C(=O)Cn3nc(C)nc3C)[C@H](C)C2)cn1 [Example 25, 2-(3,5-Dimethyl-[1,2,4]triazol-1-yl)-1-((R)-4-{4-[2-(2-methoxy-ethoxy)-pyrimidin-5-yl]-2-trifluoromethyl-thiazol-5-yl}-2-methyl-piperazin-1-yl)-ethanone]",−1,1,6.8
"Cc1nc(C)n(CC(=O)N2CCN(c3sc(C(F)(F)F)nc3-c3cnc(OCCN(C)C)nc3)C[C@H]2C)n1 [Example 26, 1-((R)-4-{4-[2-(2-Dimethylamino-ethoxy)-pyrimidin-5-yl]-2-trifluoromethyl-thiazol-5-yl}-2-methyl-piperazin-1-yl)-2-(3,5-dimethyl-[1,2,4]triazol-1-yl)-ethanone]",−1,−8,41
"Cc1ncc(-c2nc(C(F)(F)F)sc2N2CCN(C(=O)Cn3nc(C)nc3C)[C@H](C)C2)cn1 [Example 23, 2-(3,5-Dimethyl-[1,2,4]triazol-1-yl)-1-{(R)-2-methyl-4-[4-(2-methyl-pyrimidin-5-yl)-2-trifluoromethyl-thiazol-5-yl]-piperazin-1-yl}-ethanone]",−1,−2,–
"COc1ccc(-c2nc(C(F)(F)F)sc2N2CCN(C(=O)Cn3nc(C)nc3C)[C@H](C)C2)cc1C [Example 12, 2-(3,5-Dimethyl-[1,2,4]triazol-1-yl)-1-{(R)-4-[4-(4-methoxy-3-methyl-phenyl)-2-trifluoromethyl-thiazol-5-yl]-2-methyl-piperazin-1-yl}-ethanone]",6,27,25
"Cc1nc(C)n(CC(=O)N2CCN(c3sc(C(F)(F)F)nc3-c3cnc(C(C)(F)F)nc3)C[C@H]2C)n1 [Example 52, 1-((R)-4-{4-[2-(1,1-Difluoro-ethyl)-pyrimidin-5-yl]-2-trifluoromethyl-thiazol-5-yl}-2-methyl-piperazin-1-yl)-2-(3,5-dimethyl-[1,2,4]triazol-1-yl)-ethanone]",2,6,4.5
"COc1ccc(-c2nc(C(F)(F)F)sc2N2CCN(C(=O)Cn3nc(C)nc3C)[C@H](C)C2)cc1 [Example 1, 2-(3,5-Dimethyl-[1,2,4]triazol-1-yl)-1-{(R)-4-[4-(4-methoxy-phenyl)-2-trifluoromethyl-thiazol-5-yl]-2-methyl-piperazin-1-yl}-ethanone]",4,13,111
"[2H]C([2H])(C(=O)N1CCN(c2sc(C(F)(F)F)nc2-c2cnc(OCC)nc2)C[C@H]1C)n1nc(C)nc1C [Example 41, 2-(3,5-Dimethyl-[1,2,4]triazol-1-yl)-1-{(R)-4-[4-(2-ethoxy-pyrimidin-5-yl)-2-trifluoromethyl-thiazol-5-yl]-2-methyl-piperazin-1-yl}-2,2-dideuterium-ethanone]",–,–,5.6
"CCOc1ncc(-c2nc(C(F)(F)F)sc2N2CCN(C(=O)Cn3nc(C)nc3CC)[C@H](C)C2)cn1 (single isomer, unassigned) [Example 19]",4,12,8.5
"Cc1nc(C)n(CC(=O)N2CCN(c3sc(C(F)(F)F)nc3-c3cnc(CCN(C)C)nc3)C[C@H]2C)n1 [Example 42, 1-((R)-4-{4-[2-(2-Dimethylamino-ethyl)-pyrimidin-5-yl]-2-trifluoromethyl-thiazol-5-yl}-2-methyl-piperazin-1-yl)-2-(3,5-dimethyl-[1,2,4]triazol-1-yl)-ethanone]",−3,0,91
"COc1ccc(-c2nc(C(F)(F)F)sc2N2CCN(C(=O)Cn3nc(C)nc3C)[C@H](C)C2)cn1 [Example 16, 2-(3,5-Dimethyl-[1,2,4]triazol-1-yl)-1-{(R)-4-[4-(6-methoxy-pyridin-3-yl)-2-trifluoromethyl-thiazol-5-yl]-2-methyl-piperazin-1-yl}-ethanone]",4,14,–
"COc1ncc(-c2nc(C(F)(F)F)sc2N2CCN(C(=O)Cn3nc(C)nc3C)[C@H](C)C2)cn1 [Example 32, 2-(3,5-Dimethyl-[1,2,4]triazol-1-yl)-1-{(R)-4-[4-(2-methoxy-pyrimidin-5-yl)-2-trifluoromethyl-thiazol-5-yl]-2-methyl-piperazin-1-yl}-ethanone]",−6,−5,–
"Cc1nc(C)n(CC(=O)N2CCN(c3sc(C(F)(F)F)nc3-c3ccc(C#N)cc3)C[C@H]2C)n1 [Example 5, 4-(5-{(R)-4-[2-(3,5-Dimethyl-[1,2,4]triazol-1-yl)-acetyl]-3-methyl-piperazin-1-yl}-2-trifluoromethyl-thiazol-4-yl)-benzonitrile]",–,–,24
